Test results: US20210070748A1, “INHIBITORS OF BRUTONS TYROSINE KINASE” (Pharmacyclics LLC, priority 2015, published 2021)

Columns and labels:
Format in all cases: biochemical
[1] = biological target: EGFR (Homo sapiens, UniProt P00533); assay: Inhibition of a panel of kinases, in vitro HotSpot kinase assay: EGFR; conditions: D-compounds panel data; 1 μM ATP
Method: (§1) The degree of inhibition of a panel of kinases is determined using the in vitro HotSpot kinase assay (purified enzymes, ^33P-ATP, an appropriate substrate and 1 μM ATP).

[2] = biological target: LCK (Homo sapiens, UniProt P06239); assay: Inhibition of a panel of kinases, in vitro HotSpot kinase assay: LCK; conditions: D-compounds panel data; 1 μM ATP; read-out: IC50 LCK
[3] = biological target: T1, TEC (Homo sapiens, UniProt P42680); assay: Inhibition of a panel of kinases, in vitro HotSpot kinase assay: TEC; conditions: D-compounds panel data; 1 μM ATP
T1 sequence (P42680 1-631): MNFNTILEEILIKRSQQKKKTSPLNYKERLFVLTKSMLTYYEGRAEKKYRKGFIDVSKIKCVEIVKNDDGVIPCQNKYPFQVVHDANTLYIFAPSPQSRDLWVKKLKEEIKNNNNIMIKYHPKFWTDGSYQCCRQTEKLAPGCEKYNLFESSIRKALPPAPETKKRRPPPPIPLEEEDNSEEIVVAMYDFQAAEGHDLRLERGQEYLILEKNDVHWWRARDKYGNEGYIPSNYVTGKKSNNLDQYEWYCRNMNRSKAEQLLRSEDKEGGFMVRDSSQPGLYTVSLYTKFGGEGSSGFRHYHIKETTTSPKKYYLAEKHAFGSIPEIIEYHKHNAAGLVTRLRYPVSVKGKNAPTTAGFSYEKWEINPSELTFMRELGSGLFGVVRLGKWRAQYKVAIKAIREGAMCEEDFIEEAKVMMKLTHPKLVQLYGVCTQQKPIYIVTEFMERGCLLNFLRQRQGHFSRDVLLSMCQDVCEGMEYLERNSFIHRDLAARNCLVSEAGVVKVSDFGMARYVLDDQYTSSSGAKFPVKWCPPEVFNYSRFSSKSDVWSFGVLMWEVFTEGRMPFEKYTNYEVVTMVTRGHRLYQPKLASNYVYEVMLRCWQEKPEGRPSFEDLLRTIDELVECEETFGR
Method: as §1

[4] = biological target: T2, JAK3 (Homo sapiens, UniProt P52333); assay: Inhibition of a panel of kinases, in vitro HotSpot kinase assay: JAK3; conditions: D-compounds panel data; 1 μM ATP; read-out: IC50 JAK3
T2 sequence (P52333 1-1124): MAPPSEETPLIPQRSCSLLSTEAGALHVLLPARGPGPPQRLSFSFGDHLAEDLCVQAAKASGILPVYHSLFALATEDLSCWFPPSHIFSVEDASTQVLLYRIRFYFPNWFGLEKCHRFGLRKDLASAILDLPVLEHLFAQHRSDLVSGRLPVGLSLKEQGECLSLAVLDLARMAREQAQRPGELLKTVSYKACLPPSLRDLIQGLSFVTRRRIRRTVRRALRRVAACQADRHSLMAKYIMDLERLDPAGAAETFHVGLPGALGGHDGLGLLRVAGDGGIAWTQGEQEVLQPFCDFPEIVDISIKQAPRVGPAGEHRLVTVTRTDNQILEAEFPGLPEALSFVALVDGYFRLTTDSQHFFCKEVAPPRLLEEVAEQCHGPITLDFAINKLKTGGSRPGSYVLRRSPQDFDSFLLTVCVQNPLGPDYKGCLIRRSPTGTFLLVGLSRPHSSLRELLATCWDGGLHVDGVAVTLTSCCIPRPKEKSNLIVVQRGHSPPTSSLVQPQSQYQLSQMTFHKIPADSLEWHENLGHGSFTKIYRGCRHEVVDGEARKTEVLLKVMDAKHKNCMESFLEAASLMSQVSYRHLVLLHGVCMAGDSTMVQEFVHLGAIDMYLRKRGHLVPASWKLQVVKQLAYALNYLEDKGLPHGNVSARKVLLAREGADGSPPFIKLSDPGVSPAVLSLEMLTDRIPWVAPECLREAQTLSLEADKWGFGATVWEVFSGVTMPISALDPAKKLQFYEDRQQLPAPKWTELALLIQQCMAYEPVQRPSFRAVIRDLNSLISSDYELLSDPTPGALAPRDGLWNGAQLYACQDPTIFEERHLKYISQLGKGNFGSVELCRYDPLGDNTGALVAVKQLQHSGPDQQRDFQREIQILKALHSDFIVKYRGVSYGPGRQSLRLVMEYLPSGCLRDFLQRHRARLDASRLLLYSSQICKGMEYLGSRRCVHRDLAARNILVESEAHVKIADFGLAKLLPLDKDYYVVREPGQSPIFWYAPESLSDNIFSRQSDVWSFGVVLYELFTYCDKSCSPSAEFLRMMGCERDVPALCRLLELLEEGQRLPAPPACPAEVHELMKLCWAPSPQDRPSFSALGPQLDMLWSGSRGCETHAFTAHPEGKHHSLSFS

Sequence of LCK (P06239 whole entry): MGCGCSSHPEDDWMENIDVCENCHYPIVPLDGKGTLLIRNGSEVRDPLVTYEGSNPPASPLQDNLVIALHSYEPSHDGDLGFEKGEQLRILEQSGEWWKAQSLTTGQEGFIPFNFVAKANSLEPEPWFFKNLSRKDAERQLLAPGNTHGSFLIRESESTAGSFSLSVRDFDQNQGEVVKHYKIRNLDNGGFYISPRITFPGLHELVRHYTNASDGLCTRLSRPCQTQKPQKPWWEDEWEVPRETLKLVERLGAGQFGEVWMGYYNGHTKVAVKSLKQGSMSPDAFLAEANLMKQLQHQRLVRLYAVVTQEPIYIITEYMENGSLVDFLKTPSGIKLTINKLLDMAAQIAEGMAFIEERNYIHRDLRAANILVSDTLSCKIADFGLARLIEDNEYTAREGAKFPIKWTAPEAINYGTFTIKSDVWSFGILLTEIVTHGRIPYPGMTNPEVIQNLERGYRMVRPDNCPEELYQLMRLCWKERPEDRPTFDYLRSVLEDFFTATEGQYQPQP
Sequence of EGFR (P00533 25-1210): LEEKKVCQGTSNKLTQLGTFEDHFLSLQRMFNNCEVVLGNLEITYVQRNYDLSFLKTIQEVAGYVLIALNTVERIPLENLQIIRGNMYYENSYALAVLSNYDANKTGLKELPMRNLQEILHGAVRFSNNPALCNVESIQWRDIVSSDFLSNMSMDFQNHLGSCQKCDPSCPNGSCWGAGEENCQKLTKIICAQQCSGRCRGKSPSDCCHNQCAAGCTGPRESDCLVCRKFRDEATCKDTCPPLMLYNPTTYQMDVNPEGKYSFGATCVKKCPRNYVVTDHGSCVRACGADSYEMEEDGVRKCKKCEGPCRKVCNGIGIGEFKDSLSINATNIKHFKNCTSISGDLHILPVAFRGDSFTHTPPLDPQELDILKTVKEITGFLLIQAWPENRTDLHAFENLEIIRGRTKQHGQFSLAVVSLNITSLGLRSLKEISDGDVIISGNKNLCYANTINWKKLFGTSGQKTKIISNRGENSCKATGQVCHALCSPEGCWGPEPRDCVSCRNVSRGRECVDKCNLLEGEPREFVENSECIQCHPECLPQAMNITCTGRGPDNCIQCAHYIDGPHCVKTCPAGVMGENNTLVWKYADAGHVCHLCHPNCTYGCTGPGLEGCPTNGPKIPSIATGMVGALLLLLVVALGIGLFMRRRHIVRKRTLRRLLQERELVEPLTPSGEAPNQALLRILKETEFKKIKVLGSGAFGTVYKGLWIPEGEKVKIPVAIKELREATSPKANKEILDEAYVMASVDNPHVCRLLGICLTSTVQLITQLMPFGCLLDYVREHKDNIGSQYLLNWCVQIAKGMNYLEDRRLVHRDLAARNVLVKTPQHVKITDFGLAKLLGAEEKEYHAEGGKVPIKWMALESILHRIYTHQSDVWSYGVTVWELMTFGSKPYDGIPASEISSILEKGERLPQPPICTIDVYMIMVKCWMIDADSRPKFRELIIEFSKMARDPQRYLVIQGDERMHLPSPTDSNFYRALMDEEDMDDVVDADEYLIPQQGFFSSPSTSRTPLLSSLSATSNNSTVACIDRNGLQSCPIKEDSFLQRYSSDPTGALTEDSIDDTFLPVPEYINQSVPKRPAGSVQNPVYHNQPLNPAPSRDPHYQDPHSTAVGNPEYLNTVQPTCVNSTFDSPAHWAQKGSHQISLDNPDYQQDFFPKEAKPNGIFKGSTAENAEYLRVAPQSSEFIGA

IC50 [1] [nM] | IC50 [2] [nM] | IC50 [3] [nM] | IC50 [4] [nM] | SMILES
1000 to 10000 | 100 to 1000 | 100 to 1000 | 1000 to 10000 | C[C@@H]1[C@H](NC(=O)c2ccc(C3CC3)cc2)CCCN1c1cnc(C(N)=O)c(Nc2cnn(CCN(C)C)c2)n1 [Example D-187, 5-[(2R,3R)-3-(4-cyclopropylbenzamido)-2-methylpiperidin-1-yl]-3-({1-[2-(dimethylamino)ethyl]-1H-pyrazol-4-yl}amino)pyrazine-2-carboxamide]
100 to 1000 | 100 to 1000 | 10 to 100 | 1000 to 10000 | C[C@@H]1[C@H](NC(=O)c2ccc(C3CC3)cn2)CCCN1c1cnc(C(N)=O)c(Nc2ccc(N3CCN(C)CC3)cc2)n1 [Example D-188, 5-[(2R,3R)-3-(5-cyclopropylpyridine-2-amido)-2-methylpiperidin-1-yl]-3-{[4-(4-methylpiperazin-1-yl)phenyl]amino}pyrazine-2-carboxamide]
1000 to 10000 | > 10000 | 1000 to 10000 | 1000 to 10000 | Cn1cc(Nc2nc(N3C[C@@H](NC(=O)c4ccc(C5CC5)cc4)CC(F)(F)C3)cnc2C(N)=O)cn1 [Example D-189, 5-[(5S)-5-(4-cyclopropylbenzamido)-3,3-difluoropiperidin-1-yl]-3-[(1-methyl-1H-pyrazol-4-yl)amino]pyrazine-2-carboxamide]
> 10000 | 100 to 1000 | 100 to 1000 | 1000 to 10000 | Cn1cc(Nc2nc(N3CCC[C@@H](NC(=O)c4ccc(C5CC5)cc4)C3)cnc2C(N)=O)cn1 [Example D-191, 5-[(3R)-3-(4-cyclopropylbenzamido)piperidin-1-yl]-3-[(1-methyl-1H-pyrazol-4-yl)amino]pyrazine-2-carboxamide]
> 10000 | > 10000 | 1000 to 10000 | 1000 to 10000 | Cn1cc(Nc2nc(N3CCC(F)(F)[C@H](NC(=O)c4ccc(C5CC5)cc4)C3)cnc2C(N)=O)cn1 [Example D-192, 5-[(3R)-3-(4-cyclopropylbenzamido)-4,4-difluoropiperidin-1-yl]-3-[(1-methyl-1H-pyrazol-4-yl)amino]pyrazine-2-carboxamide]
> 10000 | > 10000 | 100 to 1000 | 1000 to 10000 | Cn1cc(Nc2nc(N3CCC(F)(F)[C@@H](NC(=O)c4ccc(C5CC5)cc4)C3)cnc2C(N)=O)cn1 [Example D-193, 5-[(3S)-3-(4-cyclopropylbenzamido)-4,4-difluoropiperidin-1-yl]-3-[(1-methylpyrazol-4-yl)amino]pyrazine-2-carboxamide]
1000 to 10000 | 100 to 1000 | ≤ 10 | 1000 to 10000 | C[C@@H]1[C@H](NC(=O)c2ccc(C(C)(C)O)cc2)CCCN1c1cnc(C(N)=O)c(Nc2cnn(C)c2)n1 [Example D-194, 5-[(2R,3R)-3-[4-(2-hydroxypropan-2-yl)benzamido]-2-methylpiperidin-1-yl]-3-[(1-methyl-1H-pyrazol-4-yl)amino]pyrazine-2-carboxamide]
> 10000 | 100 to 1000 | 10 to 100 | 1000 to 10000 | Cn1cc(Nc2nc(N3CCC[C@@H](NC(=O)c4ccc(C5CC5)cc4)C3)nnc2C(N)=O)cn1 [Example D-195, 3-[(3R)-3-(4-cyclopropylbenzamido)piperidin-1-yl]-5-[(1-methyl-1H-pyrazol-4-yl)amino]-1,2,4-triazine-6-carboxamide]
100 to 1000 | 10 to 100 | 10 to 100 | 100 to 1000 | C[C@@H]1[C@H](NC(=O)c2ccc(N(C)C)cc2)CCCN1c1cnc(C(N)=O)c(Nc2ccc(N3CCN(C)CC3)cc2)n1 [Example D-196, 5-[(2R,3R)-3-[4-(dimethylamino)benzamido]-2-methylpiperidin-1-yl]-3-{[4-(4-methylpiperazin-1-yl)phenyl]amino}pyrazine-2-carboxamide]
1000 to 10000 | 100 to 1000 | 10 to 100 | 1000 to 10000 | CC(C)c1ccc(C(=O)N[C@@H]2CCCN(c3cnc(C(N)=O)c(Nc4cnn(C)c4)n3)[C@@H]2C)cc1 [Example D-197, 3-[(1-methyl-1H-pyrazol-4-yl)amino]-5-[(2R,3R)-2-methyl-3-[4-(propan-2-yl)benzamido]piperidin-1-yl]pyrazine-2-carboxamide]
1000 to 10000 | 10 to 100 | 10 to 100 | 100 to 1000 | C[C@@H]1[C@H](NC(=O)c2ncc(C3CC3)cn2)CCCN1c1cnc(C(N)=O)c(Nc2cnn(C)c2)n1 [Example D-198, 5-[(2R,3R)-3-(5-cyclopropylpyrimidine-2-amido)-2-methylpiperidin-1-yl]-3-[(1-methyl-1H-pyrazol-4-yl)amino]pyrazine-2-carboxamide]
100 to 1000 | 10 to 100 | ≤ 10 | 1000 to 10000 | C[C@@H]1[C@H](NC(=O)c2ccc(C3CC3)nc2)CCCN1c1cnc(C(N)=O)c(Nc2ccc(N3CCN(C)CC3)cc2)n1 [Example D-203, 5-[(2R,3R)-3-(6-cyclopropylpyridine-3-amido)-2-methylpiperidin-1-yl]-3-{[4-(4-methylpiperazin-1-yl)phenyl]amino}pyrazine-2-carboxamide]
100 to 1000 | 10 to 100 | ≤ 10 | 1000 to 10000 | C[C@@H]1[C@H](NC(=O)c2cnc(C3CC3)cn2)CCCN1c1cnc(C(N)=O)c(Nc2cnn(C)c2)n1 [Example D-205, 5-[(2R,3R)-3-(5-cyclopropylpyrazine-2-amido)-2-methylpiperidin-1-yl]-3-[(1-methyl-1H-pyrazol-4-yl)amino]pyrazine-2-carboxamide]
1000 to 10000 | 10 to 100 | ≤ 10 | 1000 to 10000 | Cn1cc(Nc2nc(N3CCC[C@@H](n4ccc5cc(C6CC6)ccc5c4=O)C3)nnc2C(N)=O)cn1 [Example D-206, 3-[(3R)-3-(6-cyclopropyl-1-oxo-1,2-dihydroisoquinolin-2-yl)piperidin-1-yl]-5-[(1-methyl-1H-pyrazol-4-yl)amino]-1,2,4-triazine-6-carboxamide]
> 10000 | 100 to 1000 | 100 to 1000 | 100 to 1000 | C[C@@H]1[C@H](NC(=O)c2ccc(C3CC3)cc2)CCCN1c1cnc(C(N)=O)c(Nc2cnn(C)c2)c1 [Example D-207, 5-[(2R,3R)-3-(4-cyclopropylbenzamido)-2-methylpiperidin-1-yl]-3-[(1-methyl-1H-pyrazol-4-yl)amino]pyridine-2-carboxamide]
1000 to 10000 | 100 to 1000 | 10 to 100 | 1000 to 10000 | C[C@@H]1[C@H](NC(=O)c2ccc(C(C)(C)C)cn2)CCCN1c1cnc(C(N)=O)c(Nc2cnn(C)c2)n1 [Example D-208, 5-[(2R,3R)-3-(5-tert-butylpyridine-2-amido)-2-methylpiperidin-1-yl]-3-[(1-methyl-1H-pyrazol-4-yl)amino]pyrazine-2-carboxamide]
> 10000 | 100 to 1000 | 10 to 100 | 1000 to 10000 | CN1CCN([C@@H]2CCCN(c3cnc(C(N)=O)c(Nc4cnn(C)c4)n3)C2)C1=O [Example D-209, 3-[(1-methyl-1H-pyrazol-4-yl)amino]-5-[(3R)-3-(3-methyl-2-oxoimidazolidin-1-yl)piperidin-1-yl]pyrazine-2-carboxamide]
